Experimental data as given in patent publication US20100267561A1, “HERBICIDAL PYRIDAZINONE DERIVATIVES” (priority 2007, published 2010).
Read-outs that look alike come from different tables or passages of the source.

Columns and labels:
Assay in all cases: Test B pre-/postemergence plant response
Format in all cases: in vivo
[1] = test system: soybean (Glycine max); conditions: for plant injury at 31 g/ha / plant injury at 62 g/ha: Glycine max, read-out: Plant response rating, Soybean; for plant injury at 31 g/ha: 31 g ai/ha; for plant injury at 62 g/ha: 62 g ai/ha, 100 complete control
Summary of the method: (§1)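 Preemergence and postemergence (plants 2-18 cm, 1- to 4-leaf stage) applications used test chemicals in a non-phytotoxic solvent with surfactant. Plants were held in a greenhouse 13 to 15 days, then rated visually against controls on a 0-100 scale (0 no effect, 100 complete control).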

[2] = test system: kochia (Kochia scoparia); conditions: for Kochia plant response rating: postemergence, 0-100 scale; for Plant response rating, Kochia: Postemergence
Summary of the method: as §1

[3] = test system: lambsquarters (Chenopodium album); conditions: for pest or weed control at 31 g/ha / pest or weed control at 62 g/ha: Chenopodium album, read-out: Plant response rating, Lambsquarters; for pest or weed control at 31 g/ha: 31 g ai/ha; for pest or weed control at 62 g/ha: 62 g ai/ha, 100 complete control
Summary of the method: as §1

[4] = test system: catchweed bedstraw (Galium aparine); conditions: Preemergence; for Galium plant response rating: scale 0 to 100
Summary of the method: as §1

[5] = test system: woolly cupgrass (Eriochloa villosa); conditions: for pest or weed control at 31 g/ha: 31 g ai/ha; for pest or weed control at 62 g/ha: 62 g ai/ha, 100 complete control
Summary of the method: as §1

[6] = test system: eastern black (E.B.) nightshade (Solanum ptycanthum); conditions: Preemergence; for Nightshade, E. B. plant response rating: scale 0 to 100
Summary of the method: as §1

[7] = test system: pigweed (Amaranthus retroflexus); conditions: for pest or weed control at 31 g/ha / pest or weed control at 62 g/ha: Amaranthus retroflexus, read-out: Plant response rating, Pigweed; for pest or weed control at 31 g/ha: 31 g ai/ha; for pest or weed control at 62 g/ha: 62 g ai/ha, 100 complete control
Summary of the method: as §1

[8] = test system: johnsongrass (Sorghum halepense); conditions: for pest or weed control at 31 g/ha / pest or weed control at 62 g/ha: Sorghum halepense, read-out: Plant response rating, Johnsongrass; for pest or weed control at 31 g/ha: 31 g ai/ha; for pest or weed control at 62 g/ha: 62 g ai/ha, 100 complete control
Summary of the method: as §1

[9] = test system: giant foxtail (Setaria faberii); conditions: for pest or weed control at 31 g/ha: 31 g ai/ha; for pest or weed control at 62 g/ha: 62 g ai/ha, 100 complete control
Summary of the method: as §1

[10] = test system: blackgrass (Alopecurus myosuroides); conditions: for pest or weed control at 31 g/ha: 31 g ai/ha; for pest or weed control at 62 g/ha: 62 g ai/ha, 100 complete control
Summary of the method: as §1

[11] = test system: common ragweed (Ambrosia elation); conditions: for pest or weed control at 31 g/ha / pest or weed control at 62 g/ha: Ambrosia, read-out: Plant response rating, Ragweed; for pest or weed control at 31 g/ha: 31 g ai/ha; for pest or weed control at 62 g/ha: 62 g ai/ha, 100 complete control
Summary of the method: as §1

[12] = test system: goosegrass (Eleusine indica); conditions: for pest or weed control at 31 g/ha / pest or weed control at 62 g/ha: Eleusine indica, read-out: Plant response rating, Goosegrass; for pest or weed control at 31 g/ha: 31 g ai/ha; for pest or weed control at 62 g/ha: 62 g ai/ha, 100 complete control
Summary of the method: as §1

[13] = test system: Italian ryegrass (Lolium multiflorum); conditions: for pest or weed control at 31 g/ha / pest or weed control at 62 g/ha: Lolium multiflorum, read-out: Plant response rating, Ryegrass, Italian; for pest or weed control at 31 g/ha: 31 g ai/ha; for pest or weed control at 62 g/ha: 62 g ai/ha, 100 complete control
Summary of the method: as §1

[14] = test system: Russian thistle (Salsola iberica); conditions: Preemergence; for Russian Thistle plant response rating: scale 0 to 100
Summary of the method: as §1

[15] = 8 g ai/ha, postemergence, 0-100 scale
[16] = 16 g ai/ha, postemergence, 0-100 scale
[17] = post-emergence, Postemergence, scale 0 to 100
[18] = post-emergence, Postemergence, scale 0 to 100, 0 no effect
[19] = pre-emergence, Preemergence, scale 0 to 100 (0 no effect, 100 complete control)
[20] = pre-emergence, Preemergence, 0 to 100 scale, 0 no effect
[21] = Preemergence, 8 g ai/ha, scale 0 to 100
[22] = Preemergence, 16 g ai/ha, scale 0 to 100

Compound: Cc1nn(C)c(=O)c(-n2nc(-c3ccc(C(F)(F)F)cc3)cc2C)c1O [Compound 75, 5-hydroxy-2,6-dimethyl-4-[5-methyl-3-[4-(trifluoromethyl)phenyl]-1H-pyrazol-1-yl]-3(2H)-pyridazinone]
- Soybean plant response rating [1, 15]: 0
- Soybean plant response rating [1, 16]: 0
- plant injury at 31 g/ha [1, 17]: 0%
- plant injury at 62 g/ha [1, 18]: 0%
- plant injury at 31 g/ha [1, 19]: 0%
- plant injury at 62 g/ha [1, 20]: 0%
- Soybean plant response rating [1, 21]: 0
- Soybean plant response rating [1, 22]: 0
- Kochia plant response rating ([2]; 8 g ai/ha): 0
- Kochia plant response rating ([2]; 16 g ai/ha): 0
- Plant response rating, Kochia ([2]; 31 g ai/ha, scale 0 to 100): 0
- Plant response rating, Kochia ([2]; 62 g ai/ha, scale 0 to 100, 0 no effect, 100 complete control): 0
- Lambsquarters plant response rating [3, 15]: 0
- Lambsquarters plant response rating [3, 16]: 0
- pest or weed control at 31 g/ha [3, 17]: 0%
- pest or weed control at 62 g/ha [3, 18]: 0%
- pest or weed control at 31 g/ha [3, 19]: 0%
- pest or weed control at 62 g/ha [3, 20]: 0%
- Lambsquarters plant response rating [3, 21]: 0
- Lambsquarters plant response rating [3, 22]: 0
- pest or weed control at 31 g/ha ([4]; Galium aparine, pre-emergence, 31 g ai/ha, scale 0 to 100 (0 no effect, 100 complete control), read-out: Plant response rating, Galium): 0%
- pest or weed control at 62 g/ha ([4]; Galium aparine, pre-emergence, 62 g ai/ha, 0 to 100 scale, 0 no effect, 100 complete control, read-out: Plant response rating, Galium): 0%
- Galium plant response rating ([4]; 8 g ai/ha): 0
- Galium plant response rating ([4]; 16 g ai/ha): 0
- Cupgrass, Woolly plant response rating [5, 15]: 20
- pest or weed control at 16 g/ha ([5]; Eriochloa villosa, post-emergence, Postemergence, 16 g ai/ha, scale 0 to 100, read-out: Plant response rating, Cupgrass, Woolly): 65%
- pest or weed control at 31 g/ha ([5]; Eriochloa villosa, post-emergence, Postemergence, scale 0 to 100, read-out: Plant response rating, Cupgrass, Woolly): 65%
- pest or weed control at 62 g/ha ([5]; Eriochloa villosa, post-emergence, Postemergence, scale 0 to 100, 0 no effect, read-out: Plant response rating, Cupgrass, Woolly): 75%
- pest or weed control at 31 g/ha ([5]; Eriochloa villosa, pre-emergence, Preemergence, scale 0 to 100 (0 no effect, 100 complete control), read-out: Plant response rating, Cupgrass, Woolly): 65%
- pest or weed control at 62 g/ha ([5]; Eriochloa villosa, pre-emergence, Preemergence, 0 to 100 scale, 0 no effect, read-out: Plant response rating, Cupgrass, Woolly): 75%
- Cupgrass, Woolly plant response rating [5, 21]: 0
- Cupgrass, Woolly plant response rating [5, 22]: 0
- Nightshade, E. B. plant response rating ([6]; 8 g ai/ha): 0
- Nightshade, E. B. plant response rating ([6]; 16 g ai/ha): 0
- pest or weed control at 31 g/ha ([6]; Solanum, pre-emergence, 31 g ai/ha, scale 0 to 100 (0 no effect, 100 complete control), read-out: Plant response rating, Nightshade, E. B.): 0%
- pest or weed control at 62 g/ha ([6]; Solanum, pre-emergence, 62 g ai/ha, 0 to 100 scale, 0 no effect, 100 complete control, read-out: Plant response rating, Nightshade, E. B.): 0%
- Pigweed plant response rating [7, 15]: 0
- Pigweed plant response rating [7, 16]: 0
- pest or weed control at 31 g/ha [7, 17]: 0%
- pest or weed control at 62 g/ha [7, 18]: 0%
- pest or weed control at 31 g/ha [7, 19]: 0%
- pest or weed control at 62 g/ha [7, 20]: 0%
- Pigweed plant response rating [7, 21]: 0
- Pigweed plant response rating [7, 22]: 0
- Johnsongrass plant response rating [8, 15]: 75
- Johnsongrass plant response rating [8, 16]: 80
- Johnsongrass plant response rating [8, 21]: 0
- Johnsongrass plant response rating [8, 22]: 75
- pest or weed control at 31 g/ha [8, 17]: 98%
- pest or weed control at 62 g/ha [8, 18]: 100%
- pest or weed control at 31 g/ha [8, 19]: 85%
- pest or weed control at 62 g/ha [8, 20]: 95%
- Foxtail, Giant plant response rating [9, 15]: 50
- Foxtail, Giant plant response rating [9, 21]: 0
- Foxtail, Giant plant response rating [9, 22]: 0
- pest or weed control at 16 g/ha ([9]; Setaria faberi, post-emergence, Postemergence, 16 g ai/ha, scale 0 to 100, read-out: Plant response rating, Foxtail, Giant): 70%
- pest or weed control at 31 g/ha ([9]; Setaria faberi, post-emergence, Postemergence, scale 0 to 100, read-out: Plant response rating, Foxtail, Giant): 80%
- pest or weed control at 62 g/ha ([9]; Setaria faberi, post-emergence, Postemergence, scale 0 to 100, 0 no effect, read-out: Plant response rating, Foxtail, Giant): 85%
- pest or weed control at 31 g/ha ([9]; Setaria faberi, pre-emergence, Preemergence, scale 0 to 100 (0 no effect, 100 complete control), read-out: Plant response rating, Foxtail, Giant): 50%
- pest or weed control at 62 g/ha ([9]; Setaria faberi, pre-emergence, Preemergence, 0 to 100 scale, 0 no effect, read-out: Plant response rating, Foxtail, Giant): 95%
- Blackgrass plant response rating [10, 15]: 10
- pest or weed control at 16 g/ha ([10]; Alopecurus myosuroides, post-emergence, Postemergence, 16 g ai/ha, scale 0 to 100, read-out: Plant response rating, Blackgrass): 50%
- pest or weed control at 31 g/ha ([10]; Alopecurus myosuroides, post-emergence, Postemergence, scale 0 to 100, read-out: Plant response rating, Blackgrass): 65%
- pest or weed control at 62 g/ha ([10]; Alopecurus myosuroides, post-emergence, Postemergence, scale 0 to 100, 0 no effect, read-out: Plant response rating, Blackgrass): 95%
- pest or weed control at 31 g/ha ([10]; Alopecurus myosuroides, pre-emergence, Preemergence, scale 0 to 100 (0 no effect, 100 complete control), read-out: Plant response rating, Blackgrass): 60%
- pest or weed control at 62 g/ha ([10]; Alopecurus myosuroides, pre-emergence, Preemergence, 0 to 100 scale, 0 no effect, read-out: Plant response rating, Blackgrass): 90%
- Blackgrass plant response rating [10, 21]: 0
- Blackgrass plant response rating [10, 22]: 20
- Ragweed plant response rating [11, 15]: 0
- Ragweed plant response rating [11, 16]: 0
- pest or weed control at 31 g/ha [11, 17]: 0%
- pest or weed control at 62 g/ha [11, 18]: 0%
- pest or weed control at 31 g/ha [11, 19]: 0%
- pest or weed control at 62 g/ha [11, 20]: 0%
- Ragweed plant response rating [11, 21]: 0
- Ragweed plant response rating [11, 22]: 0
- Goosegrass plant response rating [12, 15]: 30
- Goosegrass plant response rating [12, 16]: 50
- pest or weed control at 31 g/ha [12, 17]: 60%
- pest or weed control at 62 g/ha [12, 18]: 75%
- pest or weed control at 31 g/ha [12, 19]: 90%
- pest or weed control at 62 g/ha [12, 20]: 98%
- Goosegrass plant response rating [12, 21]: 50
- Goosegrass plant response rating [12, 22]: 65
- Ryegrass, Italian plant response rating [13, 15]: 30
- Ryegrass, Italian plant response rating [13, 16]: 50
- pest or weed control at 31 g/ha [13, 17]: 95%
- pest or weed control at 62 g/ha [13, 18]: 98%
- pest or weed control at 31 g/ha [13, 19]: 98%
- pest or weed control at 62 g/ha [13, 20]: 98%
- Ryegrass, Italian plant response rating [13, 21]: 0
- Ryegrass, Italian plant response rating [13, 22]: 30
- Plant response rating, Russian Thistle ([14]; 31 g ai/ha, scale 0 to 100 (0 no effect, 100 complete control)): 0
- Plant response rating, Russian Thistle ([14]; 62 g ai/ha, 0 to 100 scale, 0 no effect, 100 complete control): 0
- Russian Thistle plant response rating ([14]; 8 g ai/ha): 0
- Russian Thistle plant response rating ([14]; 16 g ai/ha): 0
